From ChEMBL document CHEMBL6103591, “Discovery of naphthoquinone-furo-piperidone derivatives as dual targeting agents of STAT3 and NQO1 for the treatment of breast cancer” (Eur J Med Chem, 2025)

Assays:
[1] = test system: MDA-MB-231; experiment: Antitumor activity against human MDA-MB-231 cells xenografted in female BALB/c nude mouse assessed as tumor growth inhibition at 5 mg/kg, ip administered daily and measured every 2 days for 21 days relative to control; format: functional; conditions: MDA-MB-231, 504 h, time 21 day, read-out: TGI
[2] = Toxicity in female BALB/c nude mouse xenografted with human MDA-MB-231 cells assessed as body weight loss at 5 to 10 mg/kg, ip administered daily and measured every 2 days for 21 days; format: organism-based; conditions: in vivo, 504 h, dose 5-10 mg/kg, time 21 day
[3] = Toxicity in female BALB/c nude mouse xenografted with human MDA-MB-231 cells assessed as morphological change in liver at 5 to 10 mg/kg, ip administered daily and measured every 2 days for 21 days by hematoxylin and eosin staining based analysis; format: organism-based; conditions: in vivo, 504 h, dose 5-10 mg/kg, time 21 day
[4] = test system: MDA-MB-231; experiment: Antitumor activity against human MDA-MB-231 cells xenografted in female BALB/c nude mouse assessed as tumor growth inhibition at 10 mg/kg, ip administered daily and measured every 2 days for 21 days relative to control; format: functional; conditions: MDA-MB-231, 504 h, time 21 day, read-out: TGI
[5] = Toxicity in female BALB/c nude mouse xenografted with human MDA-MB-231 cells assessed as morphological change in spleen at 5 to 10 mg/kg, ip administered daily and measured every 2 days for 21 days by hematoxylin and eosin staining based analysis; format: organism-based; conditions: in vivo, 504 h, dose 5-10 mg/kg, time 21 day
[6] = Toxicity in female BALB/c nude mouse xenografted with human MDA-MB-231 cells assessed as morphological change in kidney at 5 to 10 mg/kg, ip administered daily and measured every 2 days for 21 days by hematoxylin and eosin staining based analysis; format: organism-based; conditions: in vivo, 504 h, dose 5-10 mg/kg, time 21 day
[7] = Toxicity in female BALB/c nude mouse xenografted with human MDA-MB-231 cells assessed as morphological change in heart at 5 to 10 mg/kg, ip administered daily and measured every 2 days for 21 days by hematoxylin and eosin staining based analysis; format: organism-based; conditions: in vivo, 504 h, dose 5-10 mg/kg, time 21 day
[8] = Toxicity in female BALB/c nude mouse xenografted with human MDA-MB-231 cells assessed as morphological change in lung at 5 to 10 mg/kg, ip administered daily and measured every 2 days for 21 days by hematoxylin and eosin staining based analysis; format: organism-based; conditions: in vivo, 504 h, dose 5-10 mg/kg, time 21 day

In the case of `Cl.O=C1C(=O)c2c(oc3c2CCN(CCN2CCCCC2)C3=O)-c2ccccc21`, the inhibition in vivo at 5 mg/kg [1] is reported as 28.9%, the Activity [2] is reported as “Non-toxic” and the Activity [3] is reported as “Non-toxic”. The inhibition in vivo at 10 mg/kg [4] was 56.8%, the Activity [5] was “Non-toxic” and the Activity [6] was “Non-toxic”. For the same molecule, the Activity [7] was “Non-toxic” and the Activity [8] was “Non-toxic”.
